Results taken from publication PMC11096148 (EJNMMI Radiopharmacy and Chemistry, 2024).
Several values for one entry are separate records, joined by “and”; a condition that tells them apart may be missing. Identical values can stand only once.

Columns and labels:
ASGR = test system: ASGR; parameters: method as in Stokmaier et al. [2009]; conditions: higher than galactose; ref Stokmaier et al. [2009]; cited from earlier work
mouse hepatic organoids = test: Organoid uptake assay and fluorescence imaging; assay type: cell-based; conditions: 1 h at 37 °C
Experimental: For blocking, the experiment was conducted in presence of 10 mM GalNAc. At the end of the incubation time, cells were put on ice for 1 min and spun down (300 rcf, 5 min, 4 °C). The supernatant was carefully removed and organoids were washed twice with 200 µL of ice-cold PBS. Internalized activity was released by treating the organoids with 200 µL of 1 M NaOH for 10 min. Lysates were transferred into scintillation vials and the activity content was measured in a γ-counter. Organoid uptake was determined as the percentage of total radioactivity added.
For microscopic studies organoids were incubated with 333 nM BP-Fluor-647-TriGalactan for 1 h at 37 °C. Cells were pelleted, washed once with PBS and fixated by addition of 200 µL of fixation buffer (BD Cytofix/Cytoperm™, Fisher Scientific, Hampton, USA). After 1 h at room temperature, cells were washed again with PBS and incubated in 100 µL of perm/wash-buffer (Biozym, Hessisch Oldendorf, Germany) for another 30 min. For counter staining organoids were incubated over night at 4 °C with 30 µL of a mixture of 2 µM Hoechst 33,342 (Thermo Scientific), 165 nM Phalloidin CruzFluor™ 555 (Santa Cruz, Dallas, Texas, USA) and Anti-ASGR1 AF488-coupled antibody (2 µg/mL, Bio-Techne, Dublin, Ireland). The next day, organoids were centrifuged, washed three times with PBS and transferred to a CellCarrier-96 Ultra Microplate (PerkinElmer). The Operetta CLS system (revvity, Hamburg, Germany) was used to image the samples. Analysis was performed using the Harmony software 4.9.
Mouse hepatic organoids (Stemcell Technologies, Vancouver, Canada) were cultivated in HepatiCult® organoid growth medium supplemented with 1 % Penicillin/Streptomycin + l-Glutamine (Thermofisher Scientific, Waltham, Massachussetts, USA) embedded in a Geltrex^TM (Thermofisher Scientific) LDEV-free reduced growth factor basement membrane matrix. Medium was replaced every 3-4 days and organoids were passaged every 7-10 days. For passaging, matrix domes were mechanically disrupted and the cell suspension was transferred into a 15 mL falcon tube. […]

[1] = Small animal dynamic PET/MR imaging, time activity curves; assay type: in vivo; conditions: C57BL/6J mice
Experimental: All animal experiments were performed according to the German animal welfare act and approved by the local authorities (R5/19). Male C57BL/6J mice were purchased from Janvier Lab (Saint-Berthevin Cedex, France) at 6 weeks. Mice were kept under 1.5% isoflurane in oxygen during the measurements (n = 3). Approximately 1 MBq of the radiotracer was injected intravenously per mouse and 1 h dynamic PET was performed with an Inveon microPET system (Inveon D-PET, Siemens, Knoxville, TN, USA). Mice were then transferred to a 7 Tesla BioSpec 70/30 USR (Bruker Biospin MRI GmbH, Ettlingen, Germany) and a 15 min MR anatomical scan using T2-weighted 3-dimensional turbo spin-echo sequence was acquired. An Inveon Acquisition Workplace was used to reconstruct the acquired images using ordered subset expectation maximization 3D (OSEM 3D) and framing the dynamics. The reconstructed image analysis was performed by using an Inveon Research Workplace. After co-registering acquired MR images with PET images, regions of interest (ROIs) were drawn on liver, heart, muscle, and kidney and time activity curves (TACs) were quantified.

[2] = Biodistribution studies in healthy BALB/c mice; assay type: in vivo
Experimental: For biodistribution studies 6 week old female BALB/c mice (n = 3, Charles Rivers Laboratories, Sulzfeld, Germany) were injected with 0.1 nmol (100 µL, approx. 1 MBq) of ^68Ga-labelled compound via the lateral tail vein and sacrificed by cervical dislocation 10, 30, or 60 min post injection (p.i.). The mice were dissected, blood and organs were weighed and the activity of the samples measured in a γ-counter. For blocking experiments, mice were co-injected with 27.7 µmol of D-galactose.

Stability in PBS = assay type: physicochemical
Experimental: (§1) A detailed synthetic procedure for preparation of NODAGA-TriGalactan including analytical data as well as a complete list of all reagents can be found in the supplementary information. Protocols for determination of logD, protein binding and stability studies have been described elsewhere (Hörmann et al. [2020]).
(§2) Binding to the ASGR was quantified in an assay with freshly isolated mouse hepatocytes using the ^natGa-complex of NODAGA-TriGalactan. Hepatocytes were seeded in a 24-well plate and competitive binding against [^125I]I-asialorosomucoid (ASOR) was studied.

plasma protein = test: Protein binding; assay type: in vitro ADME
Experimental: as §1, §2

[3] = Stability in human blood serum; assay type: in vitro ADME; conditions: for Serum stability: human blood serum
Experimental: as §1, §2

[4] = molecular target: T1, asialoglycoprotein receptor (ASGR) (Mus musculus, UniProt P24721+P34927); test: Competitive binding against [^125I]I-asialoorosomucoid on freshly isolated mouse hepatocytes; conditions: [^125I]I-asialoorosomucoid 5 nM, 1 hour on ice
T1 construct: endogenous in cells; host or cells: primary hepatocytes freshly isolated from C57BL/6 mice (collagenase perfusion)
T1 sequence (P34927 1-284): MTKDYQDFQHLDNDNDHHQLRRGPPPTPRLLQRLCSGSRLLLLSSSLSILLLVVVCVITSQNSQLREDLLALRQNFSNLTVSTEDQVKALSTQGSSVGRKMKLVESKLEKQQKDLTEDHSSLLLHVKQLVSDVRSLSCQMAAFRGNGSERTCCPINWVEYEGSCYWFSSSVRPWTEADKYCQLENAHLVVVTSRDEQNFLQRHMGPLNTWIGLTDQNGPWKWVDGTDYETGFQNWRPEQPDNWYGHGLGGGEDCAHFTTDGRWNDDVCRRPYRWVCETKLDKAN
T1 sequence (P24721 1-301): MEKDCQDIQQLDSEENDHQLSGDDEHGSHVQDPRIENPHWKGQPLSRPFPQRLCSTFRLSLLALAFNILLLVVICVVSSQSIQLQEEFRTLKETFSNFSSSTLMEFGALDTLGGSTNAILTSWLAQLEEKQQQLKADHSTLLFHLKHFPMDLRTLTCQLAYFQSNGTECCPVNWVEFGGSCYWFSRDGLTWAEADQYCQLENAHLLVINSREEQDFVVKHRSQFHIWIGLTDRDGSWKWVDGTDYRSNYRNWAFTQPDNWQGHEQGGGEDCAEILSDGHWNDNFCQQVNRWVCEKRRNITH
Experimental: Inhibitory constant (IC50) values were determined in triplicates using freshly isolated mouse hepatocytes (Seglen [1976]). […] In brief, cells were incubated in presence of [^125I]I-asialoorosomucoid (5 nM) with various ligand concentrations ranging from 10^− 5-10^− 11 M for 1 hour on ice. Cells were washed and cell bound activity was released by addition of 200 µL 1 M NaOH for 10 min. The activity content in the lysates was quantified in a γ-counter (2480 Wizard^2 3”, PerkinElmer, Waltham, Massachussetts, USA) and the values were plotted in excel. Fitting of the sigmoidal binding curve and the calculation of the IC50 value was done with excel’s solver plugin.
Binding to the ASGR was quantified in an assay with freshly isolated mouse hepatocytes using the ^natGa-complex of NODAGA-TriGalactan. Hepatocytes were seeded in a 24-well plate and competitive binding against [^125I]I-asialorosomucoid (ASOR) was studied. For comparison, the affinity of GSA for the receptor was also determined.
Isolation of murine hepatocytes followed the collagenase perfusion method published by Seglen [4]. Therefore, C57BL/6 mice were euthanized by cervical dislocation and subsequently the peritoneum was opened. […] Hepatocytes were resuspended in 20 – 30 mL of William’s E + Glutamaxx + 10 % FCS + 1 % Penicillin/Streptomycin (Gibco, Thermofisher Scientific) and counted, typically yielding 30 – 40 × 10^6 cells/animal. […]

[5] = 30 min p.i., blocking with 27.7 µmol D-galactose

CC(=O)N[C@H]1C(O)O[C@H](CO)[C@H](O)[C@@H]1O (mixture of isomers) [GalNAc, N-acetylgalactosamine]
affinity for the ASGR relative to galactose (ASGR): 10 times

CC1(CCCCCC(=O)NCCCC(=O)NC(COCc2cn(CCOCCOCCO[C@@H]3O[C@H](CO)[C@H](O)[C@H](O)[C@H]3O)nn2)(COCc2cn(CCOCCOCCO[C@@H]3O[C@H](CO)[C@H](O)[C@H](O)[C@H]3O)nn2)COCc2cn(CCOCCOCCO[C@@H]3O[C@H](CO)[C@H](O)[C@H](O)[C@H]3O)nn2)C(/C=C/C=C/C=C2/N(CCCS(=O)(=O)O)c3ccc(S(=O)(=O)O)cc3C2(C)C)=[N+](CCCS(=O)(=O)[O-])c2ccc(S(=O)(=O)O)cc21 (stereo partly shown) [BP-Fluor-647-TriGalactan]
Fluorescence imaging of mouse hepatic organoids (mouse hepatic organoids; 333 nM, co-staining with anti-ASGR antibody): internalization of the trimer into the organoids

O=C([O-])CN1CCN(CC(=O)[O-])CCN([C@H](CCC(=O)NCCCC(=O)NC(COCc2cn(CCOCCOCCO[C@@H]3O[C@H](CO)[C@H](O)[C@H](O)[C@H]3O)nn2)(COCc2cn(CCOCCOCCO[C@@H]3O[C@H](CO)[C@H](O)[C@H](O)[C@H]3O)nn2)COCc2cn(CCOCCOCCO[C@@H]3O[C@H](CO)[C@H](O)[C@H](O)[C@H]3O)nn2)C(=O)[O-])CC1.[68Ga+3] [[^68Ga]Ga-NODAGA-TriGalactan]
Time of kidney activity peak, PET TAC [1]: ~1.5 min | Background muscle uptake, PET TAC ([1]; 1 h dynamic PET): less than 3 % ID/mL | Activity in the blood (measured in the heart), PET TAC ([1]; within the first three minutes): below 5 % ID/mL | Cellular uptake on mouse hepatic organoids (mouse hepatic organoids; 0.3 nM tracer): decent degree of internalization | Cellular uptake with blocking on mouse hepatic organoids (mouse hepatic organoids; in presence of 10 mM GalNAc, p < 0.05): receptor specific interaction with the ASGR | Biodistribution Blood ([2]; 10 min p.i.): 3.3 ± 0.2 % ID/g | Biodistribution Femur ([2]; 10 min p.i.): 0.87 ± 0.52 % ID/g | Biodistribution Intestine ([2]; 10 min p.i.): 1.13 ± 0.07 % ID/g | Biodistribution Kidneys ([2]; 10 min p.i.): 8.2 ± 0.5 % ID/g and 8.15 ± 0.54 % ID/g | Biodistribution Liver ([2]; 10 min p.i.): 33.4 ± 0.9 % ID/g | Biodistribution Lung ([2]; 10 min p.i.): 2.14 ± 0.13 % ID/g | Biodistribution Muscle ([2]; 10 min p.i.): 0.77 ± 0.02 % ID/g | Biodistribution Pancreas ([2]; 10 min p.i.): 0.87 ± 0.12 % ID/g | Biodistribution Spleen ([2]; 10 min p.i.): 0.78 ± 0.05 % ID/g | Biodistribution Blood ([2]; 30 min p.i.): 0.89 ± 0.09 % ID/g | Biodistribution Femur ([2]; 30 min p.i.): 0.22 ± 0.02 % ID/g | Biodistribution Heart ([2]; 30 min p.i.): 0.40 ± 0.03 % ID/g | Biodistribution Intestine ([2]; 30 min p.i.): 1.95 ± 0.17 % ID/g | Biodistribution Kidneys ([2]; 30 min p.i.): 2.83 ± 0.18 % ID/g | Biodistribution Liver ([2]; 30 min p.i.): 32.2 ± 3.7 % ID/g | Biodistribution Lung ([2]; 30 min p.i.): 0.74 ± 0.03 % ID/g | Biodistribution Muscle ([2]; 30 min p.i.): 0.23 ± 0.03 % ID/g | Biodistribution Pancreas ([2]; 30 min p.i.): 0.31 ± 0.05 % ID/g | Biodistribution Spleen ([2]; 30 min p.i.): 0.27 ± 0.02 % ID/g | Biodistribution Stomach ([2]; 30 min p.i.): 1.05 ± 0.08 % ID/g | Biodistribution Blood [2, 5]: 1.19 ± 0.33 % ID/g | Biodistribution Femur [2, 5]: 0.37 ± 0.16 % ID/g | Biodistribution Heart [2, 5]: 0.44 ± 0.03 % ID/g | Biodistribution Intestine [2, 5]: 0.77 ± 0.19 % ID/g | Biodistribution Kidneys [2, 5]: 4.19 ± 0.29 % ID/g | Biodistribution Liver [2, 5]: 14.6 ± 0.15 % ID/g | Biodistribution Lung [2, 5]: 0.97 ± 0.04 % ID/g | Biodistribution Muscle [2, 5]: 0.43 ± 0.20 % ID/g | Biodistribution Pancreas [2, 5]: 0.45 ± 0.01 % ID/g | Biodistribution Spleen [2, 5]: 0.32 ± 0.03 % ID/g | Biodistribution Stomach [2, 5]: 0.68 ± 0.11 % ID/g | Biodistribution Blood ([2]; 60 min p.i.): 0.3 ± 0.04 % ID/g and 0.34 ± 0.04 % ID/g | Biodistribution Femur ([2]; 60 min p.i.): 0.26 ± 0.19 % ID/g | Biodistribution Heart ([2]; 60 min p.i.): 0.17 ± 0.00 % ID/g | Biodistribution Intestine ([2]; 60 min p.i.): 3.0 ± 0.4 % ID/g and 2.99 ± 0.43 % ID/g | Biodistribution Kidneys ([2]; 60 min p.i.): 1.51 ± 0.10 % ID/g | Biodistribution Liver ([2]; 60 min p.i.): 27.7 ± 3.1 % ID/g | Biodistribution Lung ([2]; 60 min p.i.): 0.38 ± 0.10 % ID/g | Biodistribution Muscle ([2]; 60 min p.i.): 0.17 ± 0.02 % ID/g | Biodistribution Pancreas ([2]; 60 min p.i.): 0.19 ± 0.09 % ID/g | Biodistribution Spleen ([2]; 60 min p.i.): 0.16 ± 0.02 % ID/g | Biodistribution Stomach ([2]; 60 min p.i.): 0.92 ± 0.04 % ID/g | PBS stability (Stability in PBS; 2 min): 99.8% | PBS stability (Stability in PBS; 30 min): 99.8% | PBS stability (Stability in PBS; 60 min): 99.8% | PBS stability (Stability in PBS; 120 min): 99.8% | stability in PBS (intact tracer) (Stability in PBS; over the time course of 2 h): > 99% | Protein binding (plasma protein; 2 min of incubation): 7.6 ± 3.9% | Protein binding (plasma protein; 30 min of incubation): 5.5 ± 0.5% | Protein binding (plasma protein; 60 min of incubation): 9.2 ± 0.2% | Protein binding (plasma protein; 120 min of incubation): 13.6 ± 3.2% | Serum stability ([3]; 2 min): 99.8 ± 0% | Serum stability ([3]; 30 min): 97.6 ± 2.3% | Serum stability ([3]; 60 min): 98.5 ± 1.2% | Serum stability ([3]; 120 min): 92.9 ± 4.6% | stability in human blood serum (intact tracer) ([3]; over the time course of 2 h): > 93%

O=C([O-])CN1CCN(CC(=O)[O-])CCN([C@H](CCC(=O)NCCCC(=O)NC(COCc2cn(CCOCCOCCO[C@@H]3O[C@H](CO)[C@H](O)[C@H](O)[C@H]3O)nn2)(COCc2cn(CCOCCOCCO[C@@H]3O[C@H](CO)[C@H](O)[C@H](O)[C@H]3O)nn2)COCc2cn(CCOCCOCCO[C@@H]3O[C@H](CO)[C@H](O)[C@H](O)[C@H]3O)nn2)C(=O)[O-])CC1.[Ga+3] [[^natGa]Ga-NODAGA-TriGalactan]
IC50 [4]: 73.2 ± 67.5 nM
